In this experiment the target is T1, dCas9(N/C)-synLPAR1 (Homo sapiens, UniProt Q92633).
T1 construct: TEV cleavage site ENLYFQL (TCS(Q'L)) (C); P2A + puromycin resistance protein (C, cleaved yes); TEV cleavage site ENLYFQG (TCS(Q'G)) (C); T2A + MCP-P65-HSF1 (C, cleaved yes); expressed in transfected cells; host or cells: HTLA cells (HEK-293 stably expressing beta-arrestin2-TEV fusion)
The experiment can be described thus: LPA dose-response of dCas9(N/C)-synLPAR1 (EYFP activation score, HTLA cells). Type of experiment: cell-based. As to conditions: sgEYFP, read-out: EC50 of LPA dose-dependent activation. As to the method: Transfection mixtures were vortexed for 10 seconds and incubated at room temperature for 20-30 minutes. Full media was removed from cells and replaced with experiment-specific transfection media prior to adding the DNA:PEI transfection mix as follows. For dCas9(N/C)-synBDKBR2 experiments, HTLA cells were transfected in DMEM+2% (v/v) FBS supplemented with bradykinin at indicated concentrations. The bradykinin transfection media was replaced after 20 hours with HTLA full media also supplemented with bradykinin, and incubated for an additional 24 hours. […]
For all EYFP reporter experiments, media was removed 44 or 48 hours post-transfection and cells were washed with PBS (1× phosphate buffer saline), trypsinized (0.05% trypsin-EDTA, Cat. #25300062, Gibco), and kept in 1×PBS on ice. […] 100,000 total events were recorded for each condition. Data was analysed and compensated using the FlowJo package (FLOWJO LLC). To calculate an EYFP activation score which integrates both reporter fluorescence intensity and % of activated cells the following formula was used as previously described (Xie et al., 2011). […]
The numerator (% EYFP^+ve×EYFP^mean) provides a weighted mean fluorescence accounting both for the strength of reporter activation (EYFP^mean) as well as population level activation (% EYFP^+ve), which penalizes OFF-state leakage. […]

T1 sequence (Q92633 with tags, fused parts or gaps): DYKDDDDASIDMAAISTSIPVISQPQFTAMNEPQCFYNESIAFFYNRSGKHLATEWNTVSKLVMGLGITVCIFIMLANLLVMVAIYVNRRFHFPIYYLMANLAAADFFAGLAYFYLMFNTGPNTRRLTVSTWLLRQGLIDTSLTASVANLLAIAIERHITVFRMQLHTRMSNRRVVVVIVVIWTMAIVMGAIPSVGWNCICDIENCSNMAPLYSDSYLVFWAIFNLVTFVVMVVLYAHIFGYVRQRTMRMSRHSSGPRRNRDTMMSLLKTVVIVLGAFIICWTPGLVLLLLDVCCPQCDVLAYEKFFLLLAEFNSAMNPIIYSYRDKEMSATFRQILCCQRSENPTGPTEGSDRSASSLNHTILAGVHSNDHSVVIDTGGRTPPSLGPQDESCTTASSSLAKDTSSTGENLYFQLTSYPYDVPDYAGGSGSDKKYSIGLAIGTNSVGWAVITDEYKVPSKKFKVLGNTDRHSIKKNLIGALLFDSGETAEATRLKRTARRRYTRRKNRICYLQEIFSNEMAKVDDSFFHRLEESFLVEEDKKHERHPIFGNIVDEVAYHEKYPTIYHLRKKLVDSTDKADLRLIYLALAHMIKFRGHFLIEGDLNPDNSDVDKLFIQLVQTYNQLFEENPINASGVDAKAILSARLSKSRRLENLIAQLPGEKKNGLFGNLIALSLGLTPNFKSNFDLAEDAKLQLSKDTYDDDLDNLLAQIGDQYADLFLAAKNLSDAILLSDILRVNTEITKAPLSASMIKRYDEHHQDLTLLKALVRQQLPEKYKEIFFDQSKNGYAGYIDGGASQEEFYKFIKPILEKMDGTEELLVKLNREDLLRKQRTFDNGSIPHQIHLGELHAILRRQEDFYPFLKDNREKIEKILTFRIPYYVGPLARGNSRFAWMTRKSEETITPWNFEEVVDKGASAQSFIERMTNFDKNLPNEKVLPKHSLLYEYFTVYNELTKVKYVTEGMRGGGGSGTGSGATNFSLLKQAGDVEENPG
T1 sequence (Q92633 with tags, fused parts or gaps): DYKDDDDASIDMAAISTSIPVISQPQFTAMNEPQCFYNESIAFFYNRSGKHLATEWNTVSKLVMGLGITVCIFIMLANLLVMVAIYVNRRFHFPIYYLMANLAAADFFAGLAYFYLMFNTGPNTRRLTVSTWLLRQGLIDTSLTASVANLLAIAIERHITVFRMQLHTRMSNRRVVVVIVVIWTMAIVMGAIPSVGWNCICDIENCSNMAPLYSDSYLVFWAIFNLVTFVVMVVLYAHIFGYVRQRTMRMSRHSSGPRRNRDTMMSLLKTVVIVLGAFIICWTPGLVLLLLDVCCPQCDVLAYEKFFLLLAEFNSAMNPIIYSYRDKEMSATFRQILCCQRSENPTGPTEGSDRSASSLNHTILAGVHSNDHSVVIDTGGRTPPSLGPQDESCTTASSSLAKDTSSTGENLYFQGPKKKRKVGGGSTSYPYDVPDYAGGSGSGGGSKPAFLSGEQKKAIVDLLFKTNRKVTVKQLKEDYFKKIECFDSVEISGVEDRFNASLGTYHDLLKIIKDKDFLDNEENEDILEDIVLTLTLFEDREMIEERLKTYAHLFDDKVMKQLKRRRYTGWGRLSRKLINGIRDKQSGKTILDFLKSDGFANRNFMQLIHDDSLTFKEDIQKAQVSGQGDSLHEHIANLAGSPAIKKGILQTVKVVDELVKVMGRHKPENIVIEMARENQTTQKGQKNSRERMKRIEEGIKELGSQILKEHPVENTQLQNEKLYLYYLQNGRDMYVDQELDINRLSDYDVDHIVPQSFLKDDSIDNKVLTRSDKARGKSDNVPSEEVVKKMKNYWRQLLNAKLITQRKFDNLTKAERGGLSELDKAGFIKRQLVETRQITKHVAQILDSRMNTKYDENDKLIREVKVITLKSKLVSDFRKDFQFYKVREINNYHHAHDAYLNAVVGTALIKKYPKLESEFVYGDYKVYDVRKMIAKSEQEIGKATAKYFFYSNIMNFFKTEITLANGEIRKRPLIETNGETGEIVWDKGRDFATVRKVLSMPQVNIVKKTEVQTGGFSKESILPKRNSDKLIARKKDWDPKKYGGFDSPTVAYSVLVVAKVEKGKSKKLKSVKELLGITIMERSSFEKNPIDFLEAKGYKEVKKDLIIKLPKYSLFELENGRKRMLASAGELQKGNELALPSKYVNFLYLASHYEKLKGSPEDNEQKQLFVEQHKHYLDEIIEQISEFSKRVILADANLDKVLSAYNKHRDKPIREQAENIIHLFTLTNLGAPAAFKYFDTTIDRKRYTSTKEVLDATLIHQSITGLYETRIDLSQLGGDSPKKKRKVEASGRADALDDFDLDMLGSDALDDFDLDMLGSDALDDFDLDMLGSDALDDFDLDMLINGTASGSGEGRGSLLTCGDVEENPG

As usually defined, the EC50 is the concentration that produces a half-maximal response. As for 1-oleoyl lysophosphatidic acid [LPA], the EC50 amounted to 1820 nM.

These data come from patent US20200207829A1, “CHIMERIC RECEPTORS” (Oxford University Innovation Limited, priority 2017, published 2020).
